From patent US12239686B2, “Immune checkpoint inhibitor combinations” (LYTIX BIOPHARMA AS, priority 2014, dated 2025)
Non-standard residues stand in square brackets, D forms with d. Residues, ends and D or L forms follow the SMILES beside them. No end group written: not given here. Bip = N[C@@H](Cc1ccc(-c2ccccc2)cc1)C(=O)O; dBip = N[C@H](Cc1ccc(-c2ccccc2)cc1)C(=O)O; Dip = N[C@H](C(=O)O)C(c1ccccc1)c1ccccc1

Tests used:
Type in all cases: cell-based, human
HL-60/ADR = experiment: In vitro cytotoxic activity, MTS assay; resistance index; details: HL-60/ADR vs sensitive HL-60 (doxorubicin resistance)
Protocol: (§1) Tumor cells were grown as adherent monolayers or as suspensions at 37° C. in a humidified atmosphere (5% CO2, 95% air). The culture medium was RPMI 1640 containing 2 mM L-glutamine (Lonza, Belgium) and supplemented with 10% fetal bovine serum (FBS, Lonza). For experimental use, the adherent cells were detached from the culture flask by a 5-minute treatment with trypsin-versene (Lonza), diluted in Hanks' medium without calcium or magnesium (Lonza) and neutralized by addition of complete culture medium. Cells were counted in a hemocytometer and their viability was assessed by 0.25% trypan blue exclusion.
(§2) Tumor cells were plated in 96-well flat-bottom microtitration plates (Nunc, Dutscher, Brumath, France) and incubated at 37° C. for 24 hours before treatment in 190 μl of drug-free culture medium supplemented or not with 10% FBS for adherent or suspension growing cell lines, respectively.
(§3) The adherent cell lines were washed once with 200 μl FBS-free culture medium before treatment. Tumor cells were incubated for 4 hours with 10 concentrations of compounds in ¼ dilution step with a top dose of 400 μM (range 4×10^−4 to 4×10^−10 M), with 1% (final concentration) Triton X-100 as positive control and FBS-free culture medium as negative control. The cells (190 μl) were incubated in a 200 μl final volume of FBS-free culture medium containing test substances at 37° C. under 5% CO2.
(§4) Three independent experiments were performed, each concentration being tested in quadruplicate. Control cells were treated with vehicle alone. At the end of treatments, the cytotoxic activity was evaluated by a MTS assay (see § 3.3).
(§5) Like MTT, MTS is bioreduced by cells into a formazan product that is directly soluble in culture medium without processing, unlike MTT.
(§6) At the end of the cells treatment, 40 μl of a 0.22 μm filtered freshly combined solution of MTS (20 ml at 2 mg/ml, Ref G1111, Batch 235897, Exp 03/2009, Promega, Charbonnières, France) and PMS (1 ml at 0.92 mg/ml, Ref P9625, Batch 065K0961, Sigma) in Dulbecco's Phosphate Buffered Saline (DPBS, Ref 17-513Q, Batch 6MB0152, Cambrex), were added in each well. Culture plates were incubated for 2 h at 37° C. Absorbency (OD) were measured at 490 nm in each well using VICTOR^3TM 1420 multilabeled counter (Wallac, PerkinElmer, Courtaboeuf, France).
(§7) [formula] • The OD values are the mean of 4 experimental measurements. • IC50: drug concentration to obtain a 50% inhibition of cell proliferation.
(§8) The dose-response curves were plotted using XLFit 3 (IDBS, United Kingdom). The IC50 determination values were calculated using the XLFit 3 software from semi-log curves. Individual IC50 determination values as well as mean and SD values were generated.
(§9) Resistance index was calculated using the following formula: […]
(§10) Resistance index was calculated for each compound for each couple of sensitive and resistant cell lines. Individual resistance index was calculated when IC50 values of both sensitive and corresponding resistant cell lines were determined within same experiment. In addition, resistance index was also calculated ratio of mean IC50 values obtained during three independent experiments.

MCF-7/mdr = MCF-7/mdr vs sensitive MCF-7 (doxorubicin resistance)
Protocol: as §1, §2, §3, §4, §5, §6, §7, §8, §9, §10

IGROV-1/CDDP = IGROV-1/CDDP vs IGROV-1 (cisplatin resistance)
Protocol: as §1, §2, §3, §4, §5, §6, §7, §8, §9, §10

CCRF-CEM/VLB = experiment: Resistance index from MTS cytotoxicity; details: CCRF-CEM/VLB vs CCRF-CEM
Protocol: as §1, with “exclusion. […]” for “exclusion.”
Three independent experiments were performed, each concentration being tested in quadruplicate. […] At the end of treatments, the cytotoxic activity was evaluated by a MTS assay (see § 3.3). […]
as §6, with “Culture plates were incubated for 2 h at 37° C.” left out, “France). […]” for “France).”
as §9

A375 cells = experiment: Confocal microscopy, fluorescence-labeled peptide internalization; details: 1.5 and 3 μM
Protocol: Fixed cells, fluorescence-labeled peptide-Subconfluential A375 cells were seeded at 8,000 cells/well as above, and transfected on the second day using the Lipofectamine LTX with Plus transfection reagents (Invitrogen) following the manufacturer's protocol. The mitochondria were labeled using the pDsRed2-Mito, and the nucleus was labeled using the GFP-Histon2B plasmid (Imaging Platform, University of Tromsø). A day after transfection, cells were washed twice with serum-free RPMI, and treated at different concentration and incubation periods with LTX-315 Pacific Blue or LTX-328 Pacific Blue.
Control cells were treated with unlabeled LTX-315 and also with serum-free RPMI only. After incubation, cells were fixed with 4% paraformaldehyde in PBS, and the wells were covered with Prolong Gold antifade (Invitrogen). Cells were further analyzed by use of a Leica TCS SP5 confocal microscope, with a […] objective. Pacific Blue, GFP and Ds Red were excited using UV, with 488 and 561 lasers, and fluorescence channels were sequentially detected using the following band passes: UV: 420-480 nm (with attenuation), 488: 501-550 nm and 561: 576-676 nm.

| Compound | Resistance index (RI) (HL-60/ADR) | Resistance index (RI) (MCF-7/mdr) | Resistance index (RI) (IGROV-1/CDDP) | Resistance index (RI) (CCRF-CEM/VLB) | internalization of Pacific Blue-labeled peptide (A375 cells) |
| --- | --- | --- | --- | --- | --- |
| NCCCC[C@H](NC(=O)[C@H](Cc1c[nH]c2ccccc12)NC(=O)[C@H](CCCCN)NC(=O)[C@H](CCCCN)NC(=O)[C@@H](NC(=O)[C@H](Cc1c[nH]c2ccccc12)NC(=O)[C@H](CCCCN)NC(=O)[C@H](CCCCN)NC(=O)[C@@H](N)Cc1c[nH]c2ccccc12)C(c1ccccc1)c1ccccc1)C(N)=O [LTX-302, W-K-K-W-Dip-K-K-W-K-NH2] (H-WKKW[Dip]KKWK-NH2; N-terminus assumed) | 1.31 | 1.23 | 0.33 |  |  |
| NCCCC[C@H](NC(=O)[C@H](Cc1c[nH]c2ccccc12)NC(=O)[C@H](Cc1c[nH]c2ccccc12)NC(=O)[C@H](CCCCN)NC(=O)[C@H](CCCCN)NC(=O)[C@H](Cc1c[nH]c2ccccc12)NC(=O)[C@H](Cc1ccc(-c2ccccc2)cc1)NC(=O)[C@H](CCCCN)NC(=O)[C@@H](N)CCCCN)C(N)=O [LTX-313, K-K-Bip-W-K-K-W-W-K-NH2] (H-KK[Bip]WKKWWK-NH2; N-terminus assumed) | 1.16 | 1.24 | 0.49 | 0.76 |  |
| N=C(N)NCCC[C@H](NC(=O)[C@H](Cc1c[nH]c2ccccc12)NC(=O)[C@H](Cc1c[nH]c2ccccc12)NC(=O)[C@H](CCCNC(=N)N)NC(=O)[C@H](CCCNC(=N)N)NC(=O)[C@@H](NC(=O)[C@H](Cc1c[nH]c2ccccc12)NC(=O)[C@H](CCCNC(=N)N)NC(=O)[C@@H](N)CCCNC(=N)N)C(c1ccccc1)c1ccccc1)C(N)=O [LTX-320, R-R-W-Dip-R-R-W-W-R-NH2] (H-RRW[Dip]RRWWR-NH2; N-terminus assumed) | 0.90 | 1.19 | 0.49 |  |  |
| NCCCC[C@@H](N)C(=O)N[C@H](CCCCN)C(=O)N[C@H](Cc1ccc(-c2ccccc2)cc1)C(=O)N[C@H](Cc1c[nH]c2ccccc12)C(=O)N[C@H](CCCCN)C(=O)N[C@H](CCCCN)C(=O)N[C@H](Cc1c[nH]c2ccccc12)C(=O)N[C@H](Cc1c[nH]c2ccccc12)C(=O)N[C@H](CCCCN)C(N)=O [LTX-329, k-k-bip-w-k-k-w-w-k-NH2] (H-[dK][dK][dBip][dW][dK][dK][dW][dW][dK]-NH2; N-terminus assumed) | 0.80 | 1.07 | 0.46 | 0.76 |  |
| KAQ[Dip]QKQAW-NH2 [LTX-328, reference compound] |  |  |  |  | did not demonstrate any internalization |
